Source: ChEMBL document CHEMBL1148015, “Chipping at large, potent human T-cell leukemia virus type 1 protease inhibitors to uncover smaller, equipotent inhibitors” (Bioorg Med Chem Lett, 2007)
*1 amine or outer side, *2 acyl side, *3 side chain or, on linkers, in order; H or OH if unused. Where a SMILES comes first, the peptide text is derived from it. [ ]: non-standard residue; d: D form. The star is where a group is joined. X1 = O=C([C@@H](O)[C@H](Cc1ccccc1)N[*:1])[*:2]; Thz(5,5-Me2) = CC1(C)SCN[C@@H]1C(=O)O; X2 = N[C@@H](Cc1ccccc1)[C@H](O)C(=O)*

What was measured:
[1] = system: Human immunodeficiency virus 1; test: Inhibition of recombinant HIV1 protease at 50 nM
[2] = system: Human T-cell leukemia virus type I; test: Inhibition of human recombinant HTLV1 protease at 100 uM

| Structure (SMILES) | inhibition [1] [%] | inhibition [2] [%] |
| --- | --- | --- |
| CSCC[C@H](NC(=O)[C@@H](CSC)NC(=O)[C@H]1N(C(=O)[C@@H](O)[C@H](Cc2ccccc2)NC(=O)[C@@H](NC(=O)[C@H](CCC(N)=O)NC(C)=O)C(C)C)CSC1(C)C)C(N)=O | 92 | < 30 |
| CSCC[C@H](NC(=O)[C@@H](NC(=O)[C@@H]1CCCN1C(=O)[C@@H](O)[C@H](Cc1ccccc1)NC(=O)[C@H](NC(=O)[C@@H](CCC(N)=O)NC(C)=O)C(C)C)C(C)C)C(=O)N[C@@H](Cc1c[nH]cn1)C(=O)O | < 30 | 49 |
| CSCC[C@H](NC(=O)[C@@H](NC(=O)[C@@H]1CCCN1C(=O)[C@@H](O)[C@H](Cc1ccccc1)NC(=O)[C@H](NC(=O)[C@H](N)CCC(N)=O)C(C)C)C(C)C)C(=O)N[C@@H](Cc1c[nH]cn1)C(=O)O | < 30 | < 30 |
| CSCC[C@H](NC(=O)[C@@H](NC(=O)[C@H]1N(C(=O)[C@@H](O)[C@H](Cc2ccccc2)NC(=O)[C@@H](NC(=O)[C@H](Cc2ccccc2)NC(C)=O)C(C)C)CSC1(C)C)C(C)C)C(N)=O (Ac-FV[X1][Thz(5,5-Me2)]VM-NH2) | 95 | 74 |
| CC[C@H](C)[C@H](NC(C)=O)C(=O)N[C@H](C(=O)N[C@@H](Cc1ccccc1)[C@H](O)C(=O)N1CSC(C)(C)[C@H]1C(=O)N[C@H](C(=O)N[C@@H](CCSC)C(N)=O)[C@@H](C)CC)[C@@H](C)CC (Ac-II[X1][Thz(5,5-Me2)]IM-NH2) | 98 | 94 |
| CSCC[C@H](NC(=O)[C@@H](NC(=O)[C@H]1N(C(=O)[C@@H](O)[C@H](Cc2ccccc2)NC(=O)[C@H](CSC)NC(=O)[C@H](CCC(N)=O)NC(C)=O)CSC1(C)C)C(C)C)C(N)=O (Ac-QC(Me)[X1][Thz(5,5-Me2)]VM-NH2) | 96 | 51 |
| CC[C@H](C)[C@H](NC(=O)[C@H](CCC(N)=O)NC(C)=O)C(=O)N[C@@H](Cc1ccccc1)[C@H](O)C(=O)N1CSC(C)(C)[C@H]1C(=O)N[C@H](C(=O)N[C@@H](CCSC)C(N)=O)C(C)C (Ac-QI[X1][Thz(5,5-Me2)]VM-NH2) | 95 | 85 |
| CSCC[C@H](NC(=O)[C@@H](NC(=O)[C@H]1N(C(=O)[C@@H](O)[C@H](Cc2ccccc2)NC(=O)[C@H](CC(C)C)NC(=O)[C@H](CCC(N)=O)NC(C)=O)CSC1(C)C)C(C)C)C(N)=O (Ac-QL[X1][Thz(5,5-Me2)]VM-NH2) | 83 | 54 |
| CSCC[C@H](NC(=O)[C@H](CC(C)C)NC(=O)[C@H]1N(C(=O)[C@@H](O)[C@H](Cc2ccccc2)NC(=O)[C@@H](NC(=O)[C@H](CCC(N)=O)NC(C)=O)C(C)C)CSC1(C)C)C(N)=O (Ac-QV[X1][Thz(5,5-Me2)]LM-NH2) | 84 | 30 |
| CSCC[C@H](NC(=O)[C@@H](NC(=O)[C@H]1N(C(=O)[C@@H](O)[C@H](Cc2ccccc2)NC(=O)[C@@H](NC(=O)[C@H](CCC(N)=O)NC(C)=O)C(C)C)CSC1(C)C)[C@@H](C)O)C(N)=O (Ac-QV[X1][Thz(5,5-Me2)]TM-NH2) | 78 | < 30 |
| CSCC[C@H](NC(=O)[C@@H](NC(=O)[C@H]1N(C(=O)[C@@H](O)[C@H](Cc2ccccc2)NC(=O)[C@@H](NC(=O)[C@H](CCC(N)=O)NC(C)=O)C(C)C)CSC1(C)C)C(C)C)C(N)=O (Ac-QV[X1][Thz(5,5-Me2)]VM-NH2) | 96 | 66 |
| CSCC[C@H](NC(=O)[C@@H](NC(=O)[C@@H]1CCCN1C(=O)[C@@H](O)[C@H](Cc1ccccc1)NC(=O)[C@@H](NC(C)=O)C(C)C)C(C)C)C(=O)N[C@@H](Cc1c[nH]cn1)C(=O)O (Ac-V[X1]PVMH-OH) | < 30 | < 30 |
| CSCC[C@H](NC(=O)[C@@H](NC(=O)[C@@H]1CCCN1C(=O)[C@@H](O)[C@H](Cc1ccccc1)NC(C)=O)C(C)C)C(=O)N[C@@H](Cc1c[nH]cn1)C(=O)O (Ac-[X1]PVMH-OH) | < 30 | < 30 |
| CC(C)[C@H](NC(=O)[C@H](CCC(N)=O)NC(=O)[C@@H]1CCCN1)C(=O)N[C@@H](Cc1ccccc1)[C@H](O)C(=O)N1CCC[C@H]1C(N)=O (H-PQV[X1]P-NH2) | < 30 | < 30 |
| CC(C)[C@H](NC(=O)[C@@H]1CCCN1C(=O)[C@@H](O)[C@H](Cc1ccccc1)NC(=O)[C@@H](NC(=O)[C@H](CCC(N)=O)NC(=O)[C@@H]1CCCN1)C(C)C)C(N)=O (H-PQV[X1]PV-NH2) | < 30 | < 30 |
| CSCC[C@H](NC(=O)[C@@H](NC(=O)[C@@H]1CCCN1C(=O)[C@@H](O)[C@H](Cc1ccccc1)NC(=O)[C@@H](NC(=O)[C@H](CCC(N)=O)NC(=O)[C@@H]1CCCN1)C(C)C)C(C)C)C(N)=O (H-PQV[X1]PVM-NH2) | < 30 | 86 |
| CSCC[C@H](NC(=O)[C@@H](NC(=O)[C@@H]1CCCN1C(=O)[C@@H](O)[C@H](Cc1ccccc1)NC(=O)[C@@H](NC(=O)[C@H](CCC(N)=O)NC(=O)[C@@H]1CCCN1)C(C)C)C(C)C)C(=O)N[C@@H](Cc1cnc[nH]1)C(=O)O (H-PQV[X1]PVMH-OH) | < 30 | 94 |
| CSCC[C@H](NC(=O)[C@@H](NC(=O)[C@H]1N(C(=O)[C@@H](O)[C@H](Cc2ccccc2)NC(=O)[C@@H](NC(=O)[C@H](CCC(N)=O)NC(=O)[C@@H]2CCCN2)C(C)C)CSC1(C)C)C(C)C)C(=O)N[C@@H](Cc1c[nH]cn1)C(=O)O (H-PQV[X1][Thz(5,5-Me2)]VMH-OH) | 58 | > 99 |
| CSCC[C@H](NC(=O)[C@@H](NC(=O)[C@@H]1CCCN1C(=O)[C@@H](O)[C@H](Cc1ccccc1)NC(=O)[C@@H](N)C(C)C)C(C)C)C(=O)N[C@@H](Cc1c[nH]cn1)C(=O)O (H-V[X1]PVMH-OH) | < 30 | < 30 |
| CSCC[C@H](NC(=O)[C@@H](NC(=O)[C@@H]1CCCN1C(=O)[C@@H](O)[C@@H](N)Cc1ccccc1)C(C)C)C(=O)N[C@@H](Cc1c[nH]cn1)C(=O)O (X2-PVMH-OH) | < 30 | < 30 |

The next lines start with the values.

| inhibition [1] [%] | inhibition [2] [%] | Structure (SMILES) |
| --- | --- | --- |
| 96 | 56 | CSCC[C@H](NC(=O)[C@@H](NC(=O)[C@H]1N(C(=O)[C@@H](O)[C@H](Cc2ccccc2)NC(=O)[C@@H](NC(=O)[C@H](C)NC(C)=O)C(C)C)CSC1(C)C)C(C)C)C(N)=O (Ac-AV[X1][Thz(5,5-Me2)]VM-NH2) |
| 98 | 84 | CC[C@H](C)[C@H](NC(C)=O)C(=O)N[C@H](C(=O)N[C@@H](Cc1ccccc1)[C@H](O)C(=O)N1CSC(C)(C)[C@H]1C(=O)N[C@H](C(=O)N[C@@H](Cc1ccccc1)C(N)=O)C(C)C)C(C)C (Ac-IV[X1][Thz(5,5-Me2)]VF-NH2) |
| 97 | 78 | CC[C@H](C)[C@H](NC(=O)[C@@H](NC(=O)[C@H]1N(C(=O)[C@@H](O)[C@H](Cc2ccccc2)NC(=O)[C@@H](NC(=O)[C@@H](NC(C)=O)[C@@H](C)CC)C(C)C)CSC1(C)C)C(C)C)C(N)=O (Ac-IV[X1][Thz(5,5-Me2)]VI-NH2) |
| 95 | 54 | CC[C@H](C)[C@H](NC(C)=O)C(=O)N[C@H](C(=O)N[C@@H](Cc1ccccc1)[C@H](O)C(=O)N1CSC(C)(C)[C@H]1C(=O)N[C@H](C(=O)N[C@@H](CC(C)C)C(N)=O)C(C)C)C(C)C (Ac-IV[X1][Thz(5,5-Me2)]VL-NH2) |
| 98 | 87 | CC[C@H](C)[C@H](NC(C)=O)C(=O)N[C@H](C(=O)N[C@@H](Cc1ccccc1)[C@H](O)C(=O)N1CSC(C)(C)[C@H]1C(=O)N[C@H](C(=O)N[C@@H](CCSC)C(N)=O)C(C)C)C(C)C (Ac-IV[X1][Thz(5,5-Me2)]VM-NH2) |
| 95 | 86 | CC[C@H](C)[C@H](NC(C)=O)C(=O)N[C@H](C(=O)N[C@@H](Cc1ccccc1)[C@H](O)C(=O)N1CSC(C)(C)[C@H]1C(=O)N[C@H](C(=O)N[C@@H](CCC(N)=O)C(N)=O)C(C)C)C(C)C (Ac-IV[X1][Thz(5,5-Me2)]VQ-NH2) |
| 96 | 70 | CC[C@H](C)[C@H](NC(C)=O)C(=O)N[C@H](C(=O)N[C@@H](Cc1ccccc1)[C@H](O)C(=O)N1CSC(C)(C)[C@H]1C(=O)N[C@H](C(=O)N[C@H](C(N)=O)C(C)C)C(C)C)C(C)C (Ac-IV[X1][Thz(5,5-Me2)]VV-NH2) |
| 99 | 83 | CSCC[C@H](NC(=O)[C@@H](NC(=O)[C@H]1N(C(=O)[C@@H](O)[C@H](Cc2ccccc2)NC(=O)[C@@H](NC(=O)[C@H](CC(C)C)NC(C)=O)C(C)C)CSC1(C)C)C(C)C)C(N)=O (Ac-LV[X1][Thz(5,5-Me2)]VM-NH2) |
| 95 | 74 | CC[C@H](C)[C@H](NC(=O)[C@H]1N(C(=O)[C@@H](O)[C@H](Cc2ccccc2)NC(=O)[C@@H](NC(=O)[C@H](CCC(N)=O)NC(C)=O)C(C)C)CSC1(C)C)C(=O)N[C@@H](CCSC)C(N)=O (Ac-QV[X1][Thz(5,5-Me2)]IM-NH2) |
| 95 | 77 | CSCC[C@H](NC(=O)[C@@H](NC(=O)[C@H]1N(C(=O)[C@@H](O)[C@H](Cc2ccccc2)NC(=O)[C@@H](NC(=O)[C@@H](NC(C)=O)C(C)C)C(C)C)CSC1(C)C)C(C)C)C(N)=O (Ac-VV[X1][Thz(5,5-Me2)]VM-NH2) |
